The text below walks through data of US4912036A, “Rapid differentiation of bacteria using cyclic polypeptide antibiotics” (Eastman Kodak Company, priority 1986, dated 1990).

The subject of one experiment is S. aureus. Briefly: Inhibition of RIND IX reduction by various cyclic polypeptide antibiotics. It counts as cell-based, Staphylococcus aureus. The note with it: for Corrected % Inhibition: 635 nm. The method, then: The following materials were used in this example: stock solutions of RIND IX compound dispersion prepared as described above, glucose (10% in water), trimethyl-1,4-benzoquinone ETA (1.5 mg/ml methanol), and the antibiotics (1 mg/ml in dimethylsulfoxide). S. aureus cells were grown as described above. The final cell concentration in the assay mixture was about 4.3×10^8 cells/ml.
Test solutions were prepared by adding in the order: 1.2 ml of HEPES buffer, 50 μl glucose solution, 1.5 ml of RIND IX dispersion, 100 μl of antibiotic solution, 100 μl of cell suspension and 25 μl of ETA solution. Control solutions were prepared as described in Examples 2 and 3. Optical density readings (OD) were measured at 635 nm at 0 minutes and after incubation at 37° C. for 30 minutes for test and control solutions, and the change in density (ΔOD) was determined. Table VI below lists the results, expressed as corrected percent inhibition of the reduction of the RIND compound. The corrected percent inhibition is calculated by dividing the difference between the ΔOD obtained from the Cell Control without antibiotic and the ΔOD of the test solution, by ΔOD of the Cell Control without antibiotic. All readings were corrected by subtracting readings of the appropriate background Controls.
Solutions containing 2.9 ml HEPES, 50 μl of the antibiotic solution and 100 μl cell solution were incubated at 37° C. for 30 minutes, centrifuged for 10 minutes and decanted. The resulting pellet was then treated with 1.4 ml HEPES, 50 μl glucose solution, 1.5 ml RIND IX dispersion and 25 μl ETA solution, mixed well and the densities recorded as described above in Method 1. The corrected percent inhibition data was calculated as described in Method 1 above.

The subject of the next experiment is E. coli. Kind of experiment: RIND XXIX reduction solution assay, Δ fluorescence. It counts as cell-based, Escherichia coli. The note with it: E. coli (gram -) about 5×10^7 cells/ml, gramicidin S 0.1 mg/ml, 37° C. The method, then:
Bacterial suspensions were prepared by growing the cells in BHT broth to stationary phase overnight at 37° C. P. auruginosa was grown with agitation. About 40 ml of each overnight culture was centrifuged, decanted and washed once with 0.05 molar potassium phosphate buffer or 0.05 molar N-2-hydroxy-ethylpiperazine-N'-2-ethanesulfonic acid (HEPES) buffer, pH 7.8, and resuspended in buffer.
Dispersions containing RIND compounds were prepared by dissolving the RIND compound in N,N-dimethylformamide (DMF) at 16 mg compound per ml of solvent. An aliquot (250 μl) of the resulting solution was added to 500 μl of TRITON X-100 surfactant. This mixture was then added dropwise with stirring to 25 ml of 0.05 molar HEPES buffer. A dispersion of RIND XXIX was prepared similarly except that DMF was acidified with 0.1% sulfuric acid. Compositions containing water-compatible RIND compounds were prepared as described above except the surfactant was omitted.
Each test solution contained the following: dispersion of RIND XXIX (25 μl) prepared as described above, glucose (400 μl of 10% aqueous solution), tryptose (400 μl of 10% aqueous solution), trimethyl-1,4-benzoquinone ETA (500 μl of 1.5 mg/ml methanol). Aliquots (200 μl) of the mixture were mixed with solutions of the antibiotics (50 μl). The cell suspensions (50 μl) were then added. The final concentration of gramcidin S and tyrocidin were 0.1 mg/ml and 3.3 mg/ml, respectively. The final cell concentration was about 5×10^7 cells/ml. Cell control solutions contained all reagents except antibiotics. Background controls consisted of both buffer and solution controls. […]
The solutions were incubated at 37° C. for 30 minutes, and the change in fluorescence emission (Δ fluorescence) was determined as the difference between the readings taken when the solutions were first mixed and then after 30 minutes incubation. Measurements were made in a commercially available MICROFLUOR Reader (available from Dynatech Laboratories, Alexandria, Virginia, U.S.A.), modified with an excitation filter at 540 nm, an emission filter at 620 nm and a Xenon lamp. […]

In the next experiment the test system is E. cloacae. Kind of experiment: MTT reduction solution assay, ΔOD 540 nm. It counts as cell-based, Enterobacter cloacae. The note with it: E. cloacae (-) 5×10^7, gramicidin S 0.00625 mg/ml, 37° C. The method, then:
(§1) These examples illustrate the differentiation of bacteria using a tetrazolium salt and phenolic dye as the reducible compounds and two cyclic polypeptide antibiotics according to the present invention. The tetrazolium salt was 3-(4,5-dimethyl-2-thiazolyl) -2,5-diphenyl-2H-tetrazolium bromide (MTT) which forms a colored formazan dye when reduced. The phenolic dye was 2,6-dichloroindophenol (DCIP) which forms a colorless species when reduced.
(§2) Solutions of the reducible compounds were prepared with the following: HEPES buffer (3 ml, 0.05 molar, pH 7.5), TRITON X-100 nonionic surfactant (1% concentration), glucose (50 μl of 10% in water), tryptose (50 μl of a 10% solution in water), MTT (25 μl of 5 mg/ml methanol) or DCIP (25 μl of 3 mg/ml methanol) and phenazine methosultate ETA (25 μl of 3 mg/ml methanol).
(§3) Test solutions were prepared from the following: reducible compound solution from above (200 μl), 50 μl of either gramicidin S solution (6 mg/ml methanol and 9 ml of buffer) or tyrocidin solution (100 mg/ml methanol and 8 ml of buffer) and 50 μl of cell suspension. […] The change in optical density (ΔOD) was determined after 30 minutes at 37° C. at 540 nm for the MTT assay and at 620 nm for the DCIP assay using a commercially available spectrophotometer.
A general note: Formazan colour is commonly taken as a measure of viable cells.

In a further experiment the test system is P. aeruginosa. Briefly: DCIP reduction solution assay, ΔOD 620 nm. It counts as cell-based, Pseudomonas aeruginosa. To be noted: P. aeruginosa (-) 5×10^7, gramicidin S 0.00625 mg/ml, 37° C. As for the experimental part: as §1, §2, §3

With gramicidin S, in the experiment with S. aureus (Methods 1 and 2), the “inhibition of the ability of S. aureus to reduce the RIND compound, in words” value is recorded as “inhibits the ability of S. aureus, a gram-positive bacterium, to reduce the RIND compound”. The “Corrected % Inhibition” value in the experiment on S. aureus (Test Method 1 (antibiotic in the test solution), S. aureus about 4.3×10^8 cells/ml, 100 μl of 1 mg/ml antibiotic solution, 30 minutes at 37° C.) was 95.6%; in the experiment with S. aureus (Test Method 2 (cells preincubated with 50 μl antibiotic solution 30 minutes, centrifuged, pellet assayed), S. aureus), 80.0%. The “Δ Fluorescence (30 Minutes)” value in the experiment with E. coli was over 4000. Besides, the “ΔOD, 540 nm after 30 Minutes” value with E. cloacae is on record as 0.931. In the experiment with P. aeruginosa, the “ΔOD, 620 nm after 30 Minutes” value is on record as 1.040.
